Like-named read-outs stand apart in the source and are kept apart here.
Assays:
[1] = Short-term plasma stability with and without esterase inhibitors; conditions: human, pH 7.4, Parent Compound Remaining (%), 3 h, 37 °C
[2] = Metabolic stability, pooled human liver microsome incubations; conditions: for Predicted In Vivo Hepatic Clearance, CLH: from pHLM CLint, well-stirred model with plasma fu, Q 21 mL min^−1 kg^−1; for CLint scaled at 0.5 µM / half-life at 0.5 µM: human, microsomes; for CLint scaled at 0.5 µM: pH 7.4, Intrinsic clearance; for half-life at 0.5 µM: pH 7.4, T1/2 (min), pHLM 0.5 mg mL^−1, 0.5 µM, NADPH, 37 °C; for half-life at 0.5 µM / Microsomal Intrinsic Clearance, CLint micr: n ≥ 3 ± SD
[3] = system: pooled human cryopreserved hepatocytes (pHHeps); assay: Metabolic stability, pooled human cryopreserved hepatocyte incubations; conditions: for Predicted In Vivo Hepatic Clearance, CLH: from pHHeps CLint, well-stirred model with plasma fu, Q 21 mL min^−1 kg^−1
[4] = as above; conditions: human, hepatocytes; for CLint scaled at 0.5 µM: Intrinsic clearance, pHHeps, alternative hepatocyte cell density 99x10^6 hepatocytes per gram liver; for half-life at 0.5 µM: T1/2 (min), pHHeps 0.25 million cells mL^−1, 0.5 µM, 37 °C, n ≥ 3 ± SD
[5] = Plasma protein binding by equilibrium dialysis; assay type: in vitro ADME, human; conditions: for fraction unbound at 5 h, 10 µg mL^−1: human, pooled human plasma, pH 7.4, equilibrium dialysis 5 h, 37 °C
[6] = Esterase Inhibitors, pH 7.4, BNPP and PMSF 500 µM each
[7] = plasma, No Esterase Inhibitors, pH 7.4, pooled human plasma
[8] = pHLM, alternative microsomal scaling factor 32 mg microsomal protein per gram liver
[9] = pHLM, alternative microsomal scaling factor 45 mg microsomal protein per gram liver
[10] = pHLM, scaling factor 32 mg microsomal protein per gram liver
[11] = pHLM, scaling factor 45 mg microsomal protein per gram liver
[12] = pHHeps, 99x10^6 hepatocytes per gram liver
[13] = 10 µg mL^−1, read-out: PPB (%) (converted)
[14] = plasma, read-out: Fraction Unbound (fu)

Structure (SMILES): C=CCCCn1cc(C(=O)N[C@@H](C(=O)OC)C(C)C)c2ccccc21 [(R)-AMB-4en-PICA (7), methyl 3-methyl-2-[(1-pent-4-enylindole-3-carbonyl)amino] butanoate]
- remaining at 3 h, 5 µM [1, 6]: 95.5 ± 2.9%
- remaining at 3 h, 5 µM [1, 7]: 91.7 ± 1.9%
- Predicted In Vivo Hepatic Clearance, CLH [2]: 11.8 ± 0.97 mL/min/kg
- Hepatic extraction ratio, EH ([2]; from pHLM incubations): 0.56 ± 0.046
- CLint scaled at 0.5 µM [2, 8]: 286 mL/min/kg
- CLint scaled at 0.5 µM [2, 9]: 402 mL/min/kg
- half-life at 0.5 µM [2]: 4.1 ± 0.75 min
- % parent compound remaining, Average ([2]; pHLM, 3 min): 56.4%
- % parent compound remaining, Average ([2]; pHLM, 6 min): 36.2%
- % parent compound remaining, Average ([2]; pHLM, 9 min): 22.6%
- % parent compound remaining, Average ([2]; pHLM, 15 min): 9.6%
- % parent compound remaining, Average ([2]; pHLM, 30 min): 1.6%
- Microsomal Intrinsic Clearance, CLint micr ([2]; pHLM): 0.348 ± 0.068 mL min^−1 mg Microsomal Protein^−1
- Hepatic extraction ratio, EH [2, 10]: 0.44 ± 0.047
- Predicted in vivo hepatic clearance, CLH [2, 10]: 9.28 mL/min/kg
- Predicted in vivo hepatic clearance, CLH [2, 11]: 11.05 mL/min/kg
- Predicted In Vivo Hepatic Clearance, CLH [3]: 16.79 ± 1.33 mL/min/kg
- Hepatic extraction ratio, EH ([3]; from pHHeps incubations): 0.80 ± 0.063
- Hepatic extraction ratio, EH [3, 12]: 0.79 ± 0.066
- Predicted in vivo hepatic clearance, CLH [3, 12]: 16.53 ± 1.39 mL/min/kg
- % parent compound remaining, Average ([3]; pHHeps, 3 min): 57.7%
- % parent compound remaining, Average ([3]; pHHeps, 6 min): 46.1%
- % parent compound remaining, Average ([3]; pHHeps, 9 min): 25.6%
- % parent compound remaining, Average ([3]; pHHeps, 15 min): 13.7%
- % parent compound remaining, Average ([3]; pHHeps, 30 min): 4.6%
- % parent compound remaining, Average ([3]; pHHeps, 45 min): 1.6%
- % parent compound remaining, Average ([3]; pHHeps, 60 min): 0.6%
- CLint scaled at 0.5 µM [4]: 1470 mL/min/kg
- half-life at 0.5 µM [4]: 5.5 ± 2.1 min
- recovery (total peak area in dialysed samples vs 4 °C samples) ([5]; PPB thermal stability control, 5 h): 95 ± 2.0%
- fraction unbound at 5 h, 10 µg mL^−1 [5, 13]: 0.059
- fraction unbound at 5 h, 10 µg mL^−1 [5, 14]: 0.059 ± 0.001

Structure (SMILES): C=CCCCn1nc(C(=O)N[C@@H](C(=O)OC)C(C)(C)C)c2ccccc21 [(R)-MDMB-4en-PINACA (5), methyl 3,3-dimethyl-2-[1-(pent-4-en-1-yl)-1H-indazole-3-carboxamido] butanoate]
- remaining at 3 h, 5 µM [1, 6]: 89.4 ± 3.4%
- remaining at 3 h, 5 µM [1, 7]: 87.2 ± 6.9%
- Predicted In Vivo Hepatic Clearance, CLH [2]: 4.94 ± 0.39 mL/min/kg
- Hepatic extraction ratio, EH ([2]; from pHLM incubations): 0.24 ± 0.019
- CLint scaled at 0.5 µM [2, 8]: 208 mL/min/kg
- CLint scaled at 0.5 µM [2, 9]: 292 mL/min/kg
- half-life at 0.5 µM [2]: 5.5 ± 0.59 min
- % parent compound remaining, Average ([2]; pHLM, 3 min): 68.4%
- % parent compound remaining, Average ([2]; pHLM, 6 min): 48.2%
- % parent compound remaining, Average ([2]; pHLM, 9 min): 32.3%
- % parent compound remaining, Average ([2]; pHLM, 15 min): 14.6%
- % parent compound remaining, Average ([2]; pHLM, 30 min): 2.5%
- Microsomal Intrinsic Clearance, CLint micr ([2]; pHLM): 0.253 ± 0.026 mL min^−1 mg Microsomal Protein^−1
- Hepatic extraction ratio, EH [2, 10]: 0.16 ± 0.014
- Predicted in vivo hepatic clearance, CLH [2, 10]: 3.32 mL/min/kg
- Hepatic extraction ratio, EH [2, 11]: 0.21 ± 0.017
- Predicted in vivo hepatic clearance, CLH [2, 11]: 4.38 ± 0.36 mL/min/kg
- Predicted In Vivo Hepatic Clearance, CLH [3]: 5.16 ± 0.70 mL/min/kg
- Hepatic extraction ratio, EH ([3]; from pHHeps incubations): 0.25 ± 0.033
- Hepatic extraction ratio, EH [3, 12]: 0.23 ± 0.032
- Predicted in vivo hepatic clearance, CLH [3, 12]: 4.86 ± 0.67 mL/min/kg
- % parent compound remaining, Average ([3]; pHHeps, 3 min): 80.8%
- % parent compound remaining, Average ([3]; pHHeps, 6 min): 77.7%
- % parent compound remaining, Average ([3]; pHHeps, 9 min): 70.3%
- % parent compound remaining, Average ([3]; pHHeps, 15 min): 58.1%
- % parent compound remaining, Average ([3]; pHHeps, 30 min): 38.0%
- % parent compound remaining, Average ([3]; pHHeps, 45 min): 26.6%
- % parent compound remaining, Average ([3]; pHHeps, 60 min): 20.8%
- CLint scaled at 0.5 µM [4]: 335 ± 61.6 mL/min/kg
- half-life at 0.5 µM [4]: 22 ± 3.6 min
- fraction unbound at 5 h, 10 µg mL^−1 [5, 13]: 0.019
- fraction unbound at 5 h, 10 µg mL^−1 [5, 14]: 0.019 ± 0.0071

Source: paper PMC7961380, “A Systematic Study of the In Vitro Pharmacokinetics and Estimated Human In Vivo Clearance of Indole and Indazole-3-Carboxamide Synthetic Cannabinoid Receptor Agonists Detected on the Illicit Drug Market” (Molecules, 2021)
